We go through 15 molecules from EPA's ToxValDB 9.5.

For data set [1], the system named is Rattus norvegicus. As to conditions: oral, M/F.
The test system of data set [2] is Mus musculus. As to conditions: for LD50: acute.
In data set [3] the test system is Rattus norvegicus. As to conditions: for LC50 / LD50: acute.
The subject of data set [4] is Rattus norvegicus. The note with it: oral.
Data set [5] concerns Rattus norvegicus. The note with it: oral. The source holds these as a separate data set.
For data set [6], the system named is Rattus norvegicus.
Data set [7] relates to Oryctolagus sp. As to conditions: acute; dermal.
Where [8] appears, read: chronic, duration: 2 years, diet, reduced weight gain, organ weight changes, increased mortality.
Setting [9] is: chronic, duration: 2 years, diet, reduced body weight.
Where [10] appears, read: subchronic, duration: 13 weeks, gavage, decreased testis weight and altered spermatogenesis in males. + Increased heart weight in females and males.
Setting [11] is: chronic, duration: 2 years, diet, increased liver weight.
The mark [12] stands for this setting: short-term, duration: 28 days, oral, diet, Sprague-Dawley.
Where [13] appears, read: short-term, duration: 28 days, gavage, M, Sprague-Dawley, Clinical Observation: Locomotor activity decrease, Salivation + Blood Chemistry: Ch E decrease.
Setting [14] is: reproduction developmental, reduced body weight gain in f1 females.

Where “and” joins values, the source holds several entries; their conditions need not be identical. Identical values can stand only once.

On to `CC1=C(C(=O)Nc2ccccc2)SCCO1` [Carboxin], for which, in data set [1] (setting [8]), the LEL was determined as 30 mg/kg-day and the NOEL amounted to 10 mg/kg-day.
In data set [1] (setting [9]), `COC(=O)c1ccccc1S(=O)(=O)NC(=O)Nc1nc(C)nc(OC)n1` [Metsulfuron-methyl] came in with an LEL of 250 mg/kg-day and an NOEL of 25 mg/kg-day.
With `Clc1ccc(C(Cl)(Cl)Cl)cn1` [2-Chloro-5-trichloromethylpyridine], the NOAEL (as a rule, the highest dose or exposure tested at which no adverse effect was seen) is 9.44 mg/m3 in data set [2] (short-term, duration: 2 weeks, inhalation, B6C3F1) and 9.44 mg/m3 in data set [3] (short-term, duration: 2 weeks, Inhalation, Fischer 344). The same molecule displayed an LC50 in data set [3] (Inhalation, Fischer 344) greater than 108 mg/m3. Moreover, the LD50 (usually the dose expected to kill half of the subjects tested) in data set [3] (oral, gavage, Sprague-Dawley) was ≥ 500 mg/kg and ≤ 1000 mg/kg.
Take `CCCCCCCCCCCCCCC` [Pentadecane]: the LD50 in data set [2] (injection, intravenous) amounted to 3490 mg/kg.
As to `CCCCC(C)=O` [2-Hexanone], the LOAEL (in general, the lowest dose or exposure tested at which an adverse effect was seen) in data set [4] (chronic, duration: 13 months, drinking water, M, Sprague-Dawley, neurological) was 143 mg/kg-day.
Consider `COC(=O)Nc1cccc(OC(=O)Nc2cccc(C)c2)c1` [Phenmedipham], for which, in data set [1] (chronic, duration: 2 years, diet, no effects), the NOAEL came to 25 mg/kg-day.
Take `Clc1cc(Cl)c(Cl)cc1Cl` [1,2,4,5-Tetrachlorobenzene]: in data set [1] (subchronic, kidney lesions), the LOAEL was determined as 3.4 mg/kg-day and the NOAEL was found to be 0.34 mg/kg-day.
For `O=C([O-])CF.[Na+]` [Sodium fluoroacetate], in data set [1] (setting [10]), the LOAEL is 0.2 mg/kg-day and the NOAEL is 0.05 mg/kg-day.
For `C=CC(=O)NCO` [N-Methylolacrylamide], the LD50 was found to be 677 mg/kg in data set [2] (oral, DD); 400 mg/kg in data set [2] (oral, gavage, B6C3F1); 400 mg/kg in data set [3] (oral, gavage, Fischer 344). Moreover, the NOAEL in data set [2] (short-term, duration: 16 days, oral, gavage, B6C3F1) was found to be 100 mg/kg-day; in data set [2] (subchronic, duration: 90 days, oral, gavage, B6C3F1), 12.5 mg/kg-day; in data set [3] (short-term, duration: 16 days, oral, gavage, Fischer 344), 50 mg/kg-day; in data set [3] (short-term, duration: 28 days, oral, diet), 4 mg/kg-day; in data set [3] (subchronic, duration: 90 days, oral, gavage, Fischer 344) it was 12.5 mg/kg-day. Also, the NOEL in data set [5] (subchronic, duration: 13 weeks, gavage, M/F, Fischer 344, Deaths + Clinical Observation: Hind limb paresis + Functional Observational Battery: Hind limb-grip strength decrease Auditory startle …) was less than 12.5 mg/kg-day.
For `c1ccc(NNc2ccccc2)cc1` [1,2-Diphenylhydrazine], the NOAEL in data set [4] (subchronic, duration: 13 weeks, diet, M, Fischer 344, hepatic) stood at 4.8 mg/kg-day.
Turning to `Nc1ccc(Cl)cc1` [4-Chloroaniline], the LOAEL in data set [1] (chronic, nonneoplastic lesions of splenic capsule) was determined as 12.5 mg/kg-day.
In the case of `CC1(C)C(C=C(Cl)Cl)C1C(=O)OCc1cccc(Oc2ccccc2)c1` (stereo not drawn) [Permethrin], the LEL is 25 mg/kg-day in data set [1] (setting [11]) and 800 mg/kg-day in data set [6] (uterotrophic, duration: 3 days, injection, subcutaneous, Active). Moreover, the NOEL came to 5 mg/kg-day in data set [1] (setting [11]); 120 mg/kg-day in data set [6] (Hershberger, duration: 10 days, oral, gavage, Sprague-Dawley, inactive + Negative + Negative + neither + no effects on PPS, AST, testis/epididymal wt, serum testosterone, and liver wt increased 11% at …). The NOAEL in data set [4] (acute, duration: 1 days, gavage, M/F, Long-Evans, neurological) came to 25 mg/kg-day; in data set [4] (subchronic, duration: 13 weeks, diet, M/F, Sprague-Dawley, neurological) it was 15.5 mg/kg-day.
For `Cc1ccc(OP(=O)(Oc2ccc(C)cc2)Oc2ccc(C)cc2)cc1.Cc1cccc(OP(=O)(Oc2cccc(C)c2)Oc2cccc(C)c2)c1.Cc1ccccc1OP(=O)(Oc1ccccc1C)Oc1ccccc1C` [Tris(methylphenyl) phosphate], the LD50 in data set [7] is greater than 10000 mg/kg; in data set [3] (oral, gavage, Wistar) it was greater than 20000 mg/kg. The LC50 in data set [3] (Inhalation, Sprague-Dawley) is greater than 5.2 µg/mL; in data set [3] (inhalation, Wistar) it was less than 200 µg/mL. In addition, the “LOAEL (% diet)” value in data set [3] (setting [12]) amounted to 0.5. In addition, the “NOAEL (% diet)” value in data set [3] (setting [12]) amounted to 0.1. Also, the NOAEL in data set [5] (setting [13]) turned out to be 200 mg/kg-day. The NOEL in data set [5] (setting [13]) is less than 40 mg/kg-day; in data set [5] (subchronic, duration: 13 weeks, diet, F, Fischer 344, Clinical Observation: Emaciation + Body Weight Changes: decrease + Food Consumption: decrease + Hematology: Hct decrease, RBC decrease, Hgb …), 65 mg/kg-day; in data set [5] (subchronic, duration: 13 weeks, diet, M/F, Fischer 344, Clinical Observation: Emaciation + Body Weight Changes: decrease + Food Consumption: decrease + Hematology: Hct decrease, RBC decrease, Hgb …), less than 86.4 mg/kg-day; in data set [5] (subchronic, duration: 13 weeks, gavage, M/F, Fischer 344, Body Weight Changes: decrease + Hematology: Hct decrease, Hgb decrease, RBC decrease + Blood Chemistry: Ch E decrease + Absolute Organ …), less than 50 mg/kg-day.
With `CCCCCCCCCCCCN` [1-Dodecanamine], the LD50 in data set [2] (oral, gavage) is 1160 mg/kg; in data set [3] (oral, gavage) it was 1020 mg/kg; in data set [3] (oral, gavage, Wistar) it was greater than 2000 mg/kg.
In data set [1] (setting [14]), `CNC(=O)N(C)c1nnc(C(C)(C)C)s1` [Tebuthiuron] returned an LEL of 14 mg/kg-day and an NOEL of 7 mg/kg-day.
